According to patent publication US20140158116A1, “INHIBITING TRPA1 FOR THE TREATMENT OF ASTHMA” (Cubist Pharmaceuticals, Inc., priority 2012, published 2014):
Entries after “also recorded” stand apart in the source; their conditions may differ.

Assay: 7-day repeat dose i.p. screening toxicity study in rats
Format: in vivo, rat
Conditions: female rats, 50 mg/kg/day i.p. for 7 consecutive days
Method: The compound of Formula (Ia) was evaluated in a 7-day repeat dose screening toxicity study in female rats. In order to maximize systemic exposure, rats were administered compound of Formula (Ia) i.p. at 50 mg/kg/day for 7 consecutive days, to obtain the results shown in FIG. 6. Clinical chemistry parameters were evaluated on Days 3 and 8. Histopathology was performed on select organs including the liver, kidney, spleen, and lung.

C[C@H]1CCCN1c1ncc(-c2cccc(NC(=O)Cn3cnc4c3c(=O)n(C)c(=O)n4C)n2)cn1 [Formula (Ia)]
clinical signs, body weight, clinical chemistry parameters: no adverse clinical signs, changes in body weight, or changes in clinical chemistry parameters were noted | histopathology of liver, kidney, spleen, lung (50 mg/kg/day): No histopathological findings in the liver, kidney, spleen, or lung were observed; also recorded: no adverse effects related to the compound of Formula (Ia) were identified
